Assay results taken from patent publication US20220177931A1, “PROCESS AND COMPOSITION FOR CONTROLLING ETHANOL PRODUCTION” (priority 2020, published 2022).

Assays:
Clostridium ljungdahlii = assay: Syngas fermentation in stirred tank bioreactor, effect of vitamin feed rates on specific ethanol productivity; format: cell-based; conditions: for effect of increasing feed rate on specific ethanol productivity: Experiment 4, vitamin B5 feed held constant below about 30 ug/g of cells, vitamin B1 and B7 feeds increased
Experimental: A synthesis gas containing CO. CO2 and H2 was continuously introduced into a stirred tank bioreactor containing Clostridium ljungdahlii (Experiments 1-4), along with a liquid medium containing trace metals and salts as described herein. Vitamins were provided using dedicated feed lines. A New Brunswick Bioflow reactor containing the fermentation medium was started with actively growing Clostridium ljungdahlii (Experiments 1-4). The rate of agitation of the reactor was set to 800 rpm at the start of the experiment and this agitation rate was maintained throughout the experiment. Feed gas flow to the reactor was increased based on the H2 and CO uptake of the culture. Temperature in the bioreactor was maintained at about 38° C. throughout the experiment. Samples of gas feed into the bioreactor and off-gas from the bioreactor and fermentation broth in the bioreactor were taken at intervals, for example feed gas, off-gas and fermentation broth were sampled about daily, once two hours and once four hours respectively. Above samples were analyzed for consumption or production of various gas components, broth acetic acid concentration, broth ethanol concentration and the optical density (cell density) of the culture. The unaroused volume of the reactor was maintained between 3000 to 3250 ml throughout the experiment. Further, the gas flow to the reactor was maintained at required gas flow rates by using a mass flow controller. The feed […] composition was 23% H2, 35% CO, 29% CO2 and 13% N2. In the following reactor runs, vitamins biotin, thiamine and pantothenate were feed to the reactor using a dedicated stream. Steady state conditions were maintained for a period of time greater than 5 times the cell retention time. Cell mass was essentially replaced 5 times before data collection phase started. After data set was collected, vitamin feed rate was adjusted, adjustment phase was repeated, and next data set was collected. Adjustment phase refers to an amount of time necessary for the culture to equilibrate to a change. In this experiment culture was allowed at least a 3-day adjustment phase. A cell recycle system (CRS) was attached to the reactor before the start of the experiment. During the experiment, medium feed rate was 3.0 to 6.0 ml/min, and through the CRS, 0-5 ml/min permeate was drawn out from the reactor. The following tables describe the vitamin feed rates and specific ethanol productivity (SEP).

[1] = system: Clostridium autoethanogenum; assay: Fermentation trials, effect of vitamin feed rates and low cell retention time on specific ethanol productivity; format: cell-based
Experimental: Fermentation trials were conducted with Clostridium autoethanogenum with Biotin (B7) and Thiamine (B1) feeds held at lower base levels with increasing Pantothenate (B5) Feeds.

Structure (SMILES): O=C(O)CCCC[C@@H]1SC[C@@H]2NC(=O)N[C@@H]21 [Biotin, biotin]
- effect of increasing feed rate on specific ethanol productivity (Clostridium ljungdahlii): did not increase specific ethanol productivity

Structure (SMILES): CC(C)(CO)[C@@H](O)C(=O)NCCC(=O)O [Pantothenate, pantothenate]
- SEP (specific ethanol productivity) (Clostridium ljungdahlii; Experiment 3, feeds (μg/g cells produced): pantothenate 19.33, biotin 17.76, thiamine 13.36): 7.95 g/day/g cells
- SEP (specific ethanol productivity) (Clostridium ljungdahlii; Experiment 3, feeds (μg/g cells produced): pantothenate 37.91, biotin 17.42, thiamine 13.10): 8.64 g/day/g cells
- SEP (specific ethanol productivity) (Clostridium ljungdahlii; Experiment 3, feeds (μg/g cells produced): pantothenate 55.49, biotin 17.00, thiamine 12.79): 10.03 g/day/g cells
- SEP (specific ethanol productivity) (Clostridium ljungdahlii; Experiment 3, feeds (μg/g cells produced): pantothenate 72.34, biotin 16.62, thiamine 12.50): 10.33 g/day/g cells
- SEP (specific ethanol productivity) (Clostridium ljungdahlii; Experiment 3, feeds (μg/g cells produced): pantothenate 108.13, biotin 19.87, thiamine 14.95): 11.25 g/day/g cells
- SEP (specific ethanol productivity) (Clostridium ljungdahlii; Experiment 3, feeds (μg/g cells produced): pantothenate 125.67, biotin 20.55, thiamine 14.76): 11.15 g/day/g cells
- specific ethanol productivity increase (Clostridium ljungdahlii; Experiment 3, vitamin B5 feed from about 20 to about 108 ug/g of cells produced, vitamin B1 and B7 feeds under 20 ug/g): about 42%
- SEP (specific ethanol productivity) ([1]; feeds (μg/g cells produced): pantothenate 48.47, biotin 29.54, thiamine 23.10, cell retention time 13.45 hrs): 8.08 g/day/g cells
- SEP (specific ethanol productivity) ([1]; feeds (μg/g cells produced): pantothenate 58.08, biotin 26.65, thiamine 20.84, cell retention time 13.27 hrs): 8.24 g/day/g cells
- SEP (specific ethanol productivity) ([1]; feeds (μg/g cells produced): pantothenate 62.90, biotin 23.04, thiamine 18.01, cell retention time 12.44 hrs): 8.51 g/day/g cells
- SEP (specific ethanol productivity) ([1]; feeds (μg/g cells produced): pantothenate 68.78, biotin 25.19, thiamine 19.70, cell retention time 11.36 hrs): 9.39 g/day/g cells
- SEP (specific ethanol productivity) ([1]; feeds (μg/g cells produced): pantothenate 70.67, biotin 21.62, thiamine 16.91, cell retention time 11.22 hrs): 9.70 g/day/g cells
- SEP (specific ethanol productivity) ([1]; feeds (μg/g cells produced): pantothenate 81.90, biotin 18.79, thiamine 14.69, cell retention time 9.81 hrs): 9.98 g/day/g cells
- specific ethanol productivity increase ([1]; vitamin B5 feed from about 48 to about 82 ug/g of cells produced, B1 and B7 under 30 then under 20 ug/g, cell retention time from about 13.5 to 9.8 hours): about 24%

Structure (SMILES): Cc1ncc(C[n+]2csc(CCO)c2C)c(N)n1 [Thiamine, thiamine]
- effect of increasing feed rate on specific ethanol productivity (Clostridium ljungdahlii): did not increase specific ethanol productivity
